{"source": "patent US20240058328A1", "about": "“MASITINIB FOR THE TREATMENT OF ALZHEIMER'S DISEASE” (AB SCIENCE, priority 2020, published 2024)", "tested_on": "patients with Alzheimer's disease", "test": "Phase 3 study AB09004: change from baseline in ADCS-ADL score", "type": "in vivo, human", "set-up": "key to δLSM (ADCS-ADL): LSM difference in ADCS-ADL change; positive = improvement", "conditions": "for δLSM (ADCS-ADL) / ΔLSM (ADCS-ADL): 4.5 mg/kg/day; for δLSM (ADCS-ADL): week 24 from baseline; for ΔLSM (ADCS-ADL): vs placebo, week 24; for improved benefit relative to complementary subpopulation: ΔLSM (ADCS-ADL)", "description": "An international, multicenter, randomized, double-blind, placebo-controlled phase 3 study was conducted with the objective to evaluate oral masitinib at a dose of 4.5 mg/kg/day as a treatment for Alzheimer's disease.\nEligible patients, aged at least 50 years, were diagnosed with dementia of Alzheimer's type according to Diagnostic and Statistical Manual of Mental Disorders (DSM)-IV criteria, and probable Alzheimer's disease according to NINCDS-ADRDA (National Institute of Neurological and Communicative Diseases and Stroke/Alzheimer's Disease and Related Disorders Association) criteria. […] Patients with any other cause of dementia not due to Alzheimer's disease were ineligible for the study.\nEligible patients were treated during 24 weeks with masitinib at a dose of 4.5 mg/kg/day (mg per kilo body weight per day) or with placebo. Treatment was administered as add-on therapy in patients who had been treated for a minimum of 6 months with a stable dose of cholinesterase inhibitors (donepezil, rivastigmine or galantamine) and/or memantine, with no changes foreseen in therapy throughout the study.\nPrimary analysis was based on the co-primary endpoints of: • Change from baseline in Alzheimer's Disease Cooperative Study Activities of Daily Living (ADCS-ADL) score. The ADCS-ADL assesses the competence of patients with Alzheimer's disease in basic and instrumental activities of daily living (ADLs). • Change from baseline in Alzheimer's Disease Assessment Scale-Cognitive Subscale (ADAS-Cog). The ADAS-Cog assesses cognition and memory.\nTreatment effect (masitinib versus placebo) was assessed based on absolute change from baseline to week 24 by using an analysis of covariance model (ANCOVA linear model) with the following factors: treatment, baseline value, and stratification criteria of baseline MMSE score, age, ADCS-ADL total score, and ADAS-Cog total score.\nFor ADCS-ADL, the global score (i.e., the sum of 23 items rated by the caregiver) was used with a range from 0 to 78, wherein 78 implies full functioning with no impairment. Thus, a higher score signifies greater functional ability, while a lower score signifies greater (worse) impairment. Results are expressed as a least-squares means difference (δLSM) of absolute change in ADCS-ADL score from baseline; that is to say, the change over time in the ADCS-ADL score, or in other words the difference between the ADCS-ADL score at baseline (before treatment initiation) and the ADCS-ADL score after treatment with masitinib or with placebo. An increase in ADCS-ADL score with respect to baseline (i.e., a positive δLSM) indicates an improvement in the patient and therefore disease stability, whereas a decrease in ADCS-ADL score with respect to baseline (i.e., negative δLSM) indicates a worsening in the patient and therefore disease progression. Treatment-effect is reported as the difference between treatment-arms (ΔLSM) (calculated as δLSM[masitinib] minus δLSM[placebo]), with a positive value indicating a beneficial effect of treatment with masitinib as compared to treatment with placebo. In a scenario where both treatment-arms show worsening in activities of daily living (i.e., a negative δLSM), then a positive ΔLSM indicates a beneficial treatment effect for masitinib, i.e., the rate of decline in masitinib treated patients is slower than that of patients from the placebo-arm.\nThe comparison was carried out using the following information: • δLSM: least-squares means difference of absolute change in endpoint score at week 24 from baseline, either according to ADAS-Cog assessment or to ADCS-ADL assessment. • ΔLSM: Difference between treatment-arms (treatment-effect) calculated as δLSM[masitinib] minus δLSM[placebo]. • Δsub/Δoverall: Ratio of subpopulation's placebo-controlled treatment-effect (ΔLSM at W24 for masitinib 4.5 mg/kg/d parallel arm) versus overall study population's placebo-controlled treatment-effect (ΔLSM at W24 for masitinib 4.5 mg/kg/d parallel arm). […]"}
{"compound": "Cc1ccc(NC(=O)c2ccc(CN3CCN(C)CC3)cc2)cc1Nc1nc(-c2cccnc2)cs1", "note": "[masitinib, 4-(4-methylpiperazin-1-ylmethyl)-N-[4-methyl-3-(4-pyridin-3ylthiazol-2-ylamino)phenyl]benzamide]", "values": [{"measurement": "δLSM (ADCS-ADL)", "setting": "MMSE [12-20]", "value": "−0.4369"}, {"measurement": "ΔLSM (ADCS-ADL)", "setting": "MMSE [25-21]", "value": "+2.7435 points"}, {"measurement": "ΔLSM (ADCS-ADL)", "setting": "MMSE [25-21], listed as M4.5, 4.5 mg/kg/day", "value": 2.7435, "unit": "points"}, {"measurement": "δLSM (ADCS-ADL)", "setting": "MMSE [25-21]", "value": 3.5738}, {"measurement": "ΔLSM (ADCS-ADL)", "setting": "MMSE ≥13", "value": 2.0496, "unit": "points"}, {"measurement": "δLSM (ADCS-ADL)", "setting": "MMSE ≥13", "value": 1.1204}, {"measurement": "ΔLSM (ADCS-ADL)", "setting": "MMSE ≥14", "value": "+2.4046 points"}, {"measurement": "ΔLSM (ADCS-ADL)", "setting": "MMSE ≥14, listed as M4.5, 4.5 mg/kg/day", "value": 2.4046, "unit": "points"}, {"measurement": "δLSM (ADCS-ADL)", "setting": "MMSE ≥14", "value": 1.3505}, {"measurement": "ΔLSM (ADCS-ADL)", "setting": "MMSE ≥15", "value": 2.2738, "unit": "points"}, {"measurement": "δLSM (ADCS-ADL)", "setting": "MMSE ≥15", "value": 1.3520}, {"measurement": "ΔLSM (ADCS-ADL)", "setting": "MMSE ≥16", "value": 2.5566, "unit": "points"}, {"measurement": "δLSM (ADCS-ADL)", "setting": "MMSE ≥16", "value": 1.6088}, {"measurement": "ΔLSM (ADCS-ADL)", "setting": "MMSE ≥17", "value": 2.2870, "unit": "points"}, {"measurement": "δLSM (ADCS-ADL)", "setting": "MMSE ≥17", "value": 1.0330}, {"measurement": "ΔLSM (ADCS-ADL)", "setting": "Overall Population", "value": 1.8190, "unit": "points"}, {"measurement": "δLSM (ADCS-ADL)", "setting": "Overall Population", "value": 1.0107}, {"measurement": "Δsub/Δoverall", "setting": "ratio of ΔLSM (ADCS-ADL) at W24, Baseline ADCS-ADL >39 vs overall study population", "value": 1.14}, {"measurement": "Δsub/Δoverall", "setting": "ratio of ΔLSM (ADCS-ADL) at W24, Baseline ADCS-ADL >47 vs overall study population", "value": 1.19}, {"measurement": "Δsub/Δoverall", "setting": "ratio of ΔLSM (ADCS-ADL) at W24, Baseline ADCS-ADL >55 vs overall study population", "value": 1.75}, {"measurement": "Δsub/Δoverall", "setting": "ratio of ΔLSM (ADCS-ADL) at W24, Baseline ADCS-ADL ≥32 vs overall study population", "value": 1.09}, {"measurement": "Δsub/Δoverall", "setting": "ratio of ΔLSM (ADCS-ADL) at W24, Baseline ADCS-ADL ≥35 vs overall study population", "value": 1.11}, {"measurement": "Δsub/Δoverall", "setting": "ratio of ΔLSM (ADCS-ADL) at W24, Baseline ADCS-ADL ≥38 vs overall study population", "value": 1.28}, {"measurement": "Δsub/Δoverall", "setting": "ratio of ΔLSM (ADCS-ADL) at W24, Baseline ADCS-ADL ≥41 vs overall study population", "value": 1.11}, {"measurement": "Δsub/Δoverall", "setting": "ratio of ΔLSM (ADCS-ADL) at W24, Baseline ADCS-ADL ≥50 vs overall study population", "value": 1.78}, {"measurement": "Δsub/Δoverall", "setting": "ratio of ΔLSM (ADCS-ADL) at W24, MMSE [20-12] vs overall study population", "value": 0.76}, {"measurement": "Δsub/Δoverall", "setting": "ratio of ΔLSM (ADCS-ADL) at W24, MMSE [25-21] vs overall study population", "value": 1.51}, {"measurement": "Δsub/Δoverall", "setting": "ratio of ΔLSM (ADCS-ADL) at W24, MMSE ≥13 vs overall study population", "value": 1.13}, {"measurement": "Δsub/Δoverall", "setting": "ratio of ΔLSM (ADCS-ADL) at W24, MMSE ≥14 vs overall study population", "value": 1.32}, {"measurement": "Δsub/Δoverall", "setting": "ratio of ΔLSM (ADCS-ADL) at W24, MMSE ≥15 vs overall study population", "value": 1.25}, {"measurement": "Δsub/Δoverall", "setting": "ratio of ΔLSM (ADCS-ADL) at W24, MMSE ≥16 vs overall study population", "value": 1.41}, {"measurement": "Δsub/Δoverall", "setting": "ratio of ΔLSM (ADCS-ADL) at W24, MMSE ≥17 vs overall study population", "value": 1.26}, {"measurement": "Δsub/Δoverall (percentage improvement)", "setting": "ΔLSM (ADCS-ADL) at W24, Baseline ADCS-ADL >39 vs overall study population", "value": "(14%)"}, {"measurement": "Δsub/Δoverall (percentage improvement)", "setting": "ΔLSM (ADCS-ADL) at W24, Baseline ADCS-ADL >47 vs overall study population", "value": "(19%)"}, {"measurement": "Δsub/Δoverall (percentage improvement)", "setting": "ΔLSM (ADCS-ADL) at W24, Baseline ADCS-ADL >55 vs overall study population", "value": 75, "unit": "%"}, {"measurement": "Δsub/Δoverall (percentage improvement)", "setting": "ΔLSM (ADCS-ADL) at W24, Baseline ADCS-ADL >55 vs overall study population, listed as M4.5", "value": "(75%)"}, {"measurement": "Δsub/Δoverall (percentage improvement)", "setting": "ΔLSM (ADCS-ADL) at W24, Baseline ADCS-ADL ≥32 vs overall study population", "value": "(9%)"}, {"measurement": "Δsub/Δoverall (percentage improvement)", "setting": "ΔLSM (ADCS-ADL) at W24, Baseline ADCS-ADL ≥35 vs overall study population", "value": "(11%)"}, {"measurement": "Δsub/Δoverall (percentage improvement)", "setting": "ΔLSM (ADCS-ADL) at W24, Baseline ADCS-ADL ≥38 vs overall study population", "value": "(28%)"}, {"measurement": "Δsub/Δoverall (percentage improvement)", "setting": "ΔLSM (ADCS-ADL) at W24, Baseline ADCS-ADL ≥41 vs overall study population", "value": "(11%)"}, {"measurement": "Δsub/Δoverall (percentage improvement)", "setting": "ΔLSM (ADCS-ADL) at W24, Baseline ADCS-ADL ≥50 vs overall study population", "value": 78, "unit": "%"}, {"measurement": "Δsub/Δoverall (percentage improvement)", "setting": "ΔLSM (ADCS-ADL) at W24, Baseline ADCS-ADL ≥50 vs overall study population, listed as M4.5", "value": "(78%)"}, {"measurement": "Δsub/Δoverall (percentage improvement)", "setting": "ΔLSM (ADCS-ADL) at W24, MMSE [20-12] vs overall study population", "value": "(−24%)"}, {"measurement": "Δsub/Δoverall (percentage improvement)", "setting": "ΔLSM (ADCS-ADL) at W24, MMSE [25-21] vs overall study population", "value": 51, "unit": "%"}, {"measurement": "Δsub/Δoverall (percentage improvement)", "setting": "ΔLSM (ADCS-ADL) at W24, MMSE [25-21] vs overall study population, listed as M4.5", "value": "(51%)"}, {"measurement": "Δsub/Δoverall (percentage improvement)", "setting": "ΔLSM (ADCS-ADL) at W24, MMSE ≥13 vs overall study population", "value": "(13%)"}, {"measurement": "Δsub/Δoverall (percentage improvement)", "setting": "ΔLSM (ADCS-ADL) at W24, MMSE ≥14 vs overall study population", "value": 32, "unit": "%"}, {"measurement": "Δsub/Δoverall (percentage improvement)", "setting": "ΔLSM (ADCS-ADL) at W24, MMSE ≥14 vs overall study population, listed as M4.5", "value": "(32%)"}, {"measurement": "Δsub/Δoverall (percentage improvement)", "setting": "ΔLSM (ADCS-ADL) at W24, MMSE ≥15 vs overall study population", "value": "(25%)"}, {"measurement": "Δsub/Δoverall (percentage improvement)", "setting": "ΔLSM (ADCS-ADL) at W24, MMSE ≥16 vs overall study population", "value": "(41%)"}, {"measurement": "Δsub/Δoverall (percentage improvement)", "setting": "ΔLSM (ADCS-ADL) at W24, MMSE ≥17 vs overall study population", "value": "(26%)"}, {"measurement": "improved benefit relative to complementary subpopulation", "setting": "baseline ADAS-Cog ≤25 relative to >25", "value": 84, "unit": "%"}, {"measurement": "improved benefit relative to complementary subpopulation", "setting": "baseline ADCS-ADL >39 relative to ≤39", "value": 191, "unit": "%"}, {"measurement": "improved benefit relative to complementary subpopulation", "setting": "baseline ADCS-ADL >55 relative to ≤55", "value": "about 600%"}, {"measurement": "improved benefit relative to complementary subpopulation", "setting": "baseline MMSE 25 to 21 relative to MMSE 20 to 12, printed as 'between 99% to 66%'", "value": 99, "unit": "%"}]}
